Laboratory results published in the supplement of paper PMC13380429.

What was measured:
U2OS [1] = assay: relative viability EC50 (midpoint between 100% and the lowest measured viability); higher = less toxic; details: 72 h
Caco-2 [2] = assay: as above; details: 72 h
Vero E6 [3] = assay: as above; details: 72 h
HepG2 [4] = assay: as above; details: 72 h
Calu-3 [5] = assay: as above; details: 72 h
A549-ACE2 = assay: drug-induced phospholipidosis relative to tamoxifen; higher = more phospholipidosis
U2OS [6] = assay: drug sensitivity score (DSS) for viability; higher = more toxic; extreme values may be limits of the assay; details: 72 h
Caco-2 [7] = assay: as above; details: 72 h
Vero E6 [8] = assay: as above; details: 72 h
HepG2 [9] = assay: as above; details: 72 h
Calu-3 [10] = assay: as above; details: 72 h
[11] = system: A549-ACE2 infected with SARS-CoV-2; assay: cell count relative to DMSO; higher = less toxic; details: 24 h
[12] = system: A549-ACE2 infected with SARS-CoV-2; assay: SARS-CoV-2 infection rate relative to DMSO; higher = more infection; details: 24 h
[13] = system: A549-ACE2 infected with SARS-CoV-2; assay: morphology score (similarity to uninfected cells); higher = more like uninfected cells; details: 24 h
U2OS [14] = assay: cell viability relative to DMSO; higher = less toxic; details: 72 h
Caco-2 [15] = assay: as above; details: 72 h
Vero E6 [16] = assay: as above; details: 72 h
HepG2 [17] = assay: as above; details: 72 h
Calu-3 [18] = assay: as above; details: 72 h

CC(C)C[C@@H](C=O)NC(=O)[C@H](CC(C)C)NC(=O)[C@H](CC(C)C)NC(=O)OCc1ccccc1 [MG-132]
Details | drug sensitivity score | relative viability EC50 [µM]
Caco-2 [2] | – | 0.391
Caco-2 [7] | 15.8 | –
Calu-3 [5] | – | 0.578
Calu-3 [10] | 14.2 | –
HepG2 [4] | – | 0.611
HepG2 [9] | 14.4 | –
U2OS [1] | – | 0.377
U2OS [6] | 17 | –
Vero E6 [3] | – | 0.94
Vero E6 [8] | 11.6 | –

A549-ACE2, 24 h
Details | drug-induced phospholipidosis [%]
0.3 µM | 21.5
0.833333 µM | 10.6

Details | SARS-CoV-2 infection rate, [12] [%] | cell count, [11] [%] | cell viability, Caco-2 [15] [%] | cell viability, Calu-3 [18] [%] | cell viability, HepG2 [17] [%] | cell viability, U2OS [14] [%] | cell viability, Vero E6 [16] [%] | morphology score, [13]
1 nM | – | – | 99.9 | 96.6 | 102 | 99.8 | 93.1 | –
10 nM | – | – | 103 | 113 | 97 | 99.7 | 100 | –
100 nM | – | – | 94.5 | 102 | 107 | 95.7 | 104 | –
0.3 µM | 38 | 109 | – | – | – | – | – | 0.7
1000 nM | – | – | 17.4 | 23 | 22.1 | 9.3 | 48.5 | –
3 µM | 9 | 37 | – | – | – | – | – | 0.33
10 µM | 20 | 22 | – | – | – | – | – | 0.22
10000 nM | – | – | 5.2 | 3.7 | -0.1 | -0.1 | 4.4 | –
30 µM | 30 | 14 | – | – | – | – | – | 0.18

CCCN1CCN(c2ccc(C(=O)NC3(C(=O)NCC#N)CCCCC3)cc2)CC1 [balicatib]
Details | drug sensitivity score | relative viability EC50 [µM]
Caco-2 [2] | – | > 10
Caco-2 [7] | 0 | –
Calu-3 [5] | – | > 10
Calu-3 [10] | 0 | –
HepG2 [4] | – | > 10
HepG2 [9] | 0 | –
U2OS [1] | – | > 10
U2OS [6] | 0 | –
Vero E6 [3] | – | > 10
Vero E6 [8] | 0 | –

drug-induced phospholipidosis [%], A549-ACE2
Details | 0.3 µM | 0.833333 µM | 3.33333 µM | 6.66667 µM | 10 µM | 30 µM
24 h | 1.43 | -0.89 | 1.98 | 6.47 | 8.06 | 17.1
48 h | 1.09 | -1.16 | 0.49 | 4.83 | 7.84 | 17.9
72 h | 4.12 | -0.524 | 1.07 | 5.37 | 8.73 | 20.4

Details | SARS-CoV-2 infection rate, [12] [%] | cell count, [11] [%] | cell viability, Caco-2 [15] [%] | cell viability, Calu-3 [18] [%] | cell viability, HepG2 [17] [%] | cell viability, U2OS [14] [%] | cell viability, Vero E6 [16] [%] | morphology score, [13]
1 nM | – | – | 107 | 108 | 90 | 100 | 99.7 | –
10 nM | – | – | 101 | 100 | 103 | 99.7 | 108 | –
100 nM | – | – | 102 | 98.8 | 114 | 95 | 108 | –
0.3 µM | 86 | 107 | – | – | – | – | – | 0.39
1000 nM | – | – | 95.4 | 108 | 104 | 103 | 98.1 | –
3 µM | 45 | 116 | – | – | – | – | – | 0.76
10 µM | 33 | 119 | – | – | – | – | – | 0.78
10000 nM | – | – | 106 | 110 | 101 | 95.4 | 105 | –
30 µM | 20 | 117 | – | – | – | – | – | 0.83

CNc1cc(OC)c(C(=O)NC2CCN(Cc3ccccc3)C2C)cc1Cl (centres undefined) [nemonapride]
Details | drug sensitivity score | relative viability EC50 [µM]
Caco-2 [2] | – | > 10
Caco-2 [7] | 0 | –
Calu-3 [5] | – | > 10
Calu-3 [10] | 0 | –
HepG2 [4] | – | > 10
HepG2 [9] | 0.6 | –
U2OS [1] | – | > 10
U2OS [6] | 0 | –
Vero E6 [3] | – | > 10
Vero E6 [8] | 0 | –

drug-induced phospholipidosis [%], A549-ACE2
Details | 0.3 µM | 0.833333 µM | 3.33333 µM | 6.66667 µM | 10 µM | 30 µM
24 h | 1.28 | 6.8 | 10.9 | 12.3 | 18.5 | 51
48 h | 3.09 | 4.55 | 12.9 | 15.7 | 16.3 | 43.9
72 h | 5.92 | 4.8 | 14.4 | 19.3 | 24.2 | 53.2

Details | SARS-CoV-2 infection rate, [12] [%] | cell count, [11] [%] | cell viability, Caco-2 [15] [%] | cell viability, Calu-3 [18] [%] | cell viability, HepG2 [17] [%] | cell viability, U2OS [14] [%] | cell viability, Vero E6 [16] [%] | morphology score, [13]
1 nM | – | – | 101 | 92.2 | 96 | 90.7 | 99.1 | –
10 nM | – | – | 104 | 98 | 96.1 | 99.4 | 91.9 | –
100 nM | – | – | 104 | 92.6 | 98.1 | 94.5 | 99.5 | –
0.3 µM | 100 | 99 | – | – | – | – | – | -0.15
1000 nM | – | – | 108 | 105 | 94.2 | 98.6 | 94.7 | –
3 µM | 61 | 111 | – | – | – | – | – | 0.69
10 µM | 49 | 123 | – | – | – | – | – | 0.82
10000 nM | – | – | 90.5 | 87.5 | 83.4 | 93.8 | 100 | –
30 µM | 16 | 122 | – | – | – | – | – | 0.86
